From ChEMBL document CHEMBL1135808, “A new type of mixed anhydride and its applications to the synthesis of 7-substituted 8-chloro-5,5-dioxoimidazo[1,2-b][1,4,2]benzodithiazines with in vitro antitumor activity” (2002)

How the values were obtained:
Format in all cases: functional
Malme-3M [1] = assay: In vitro growth inhibition against melanoma MALME 3M cell line was reported.; settings: Homo sapiens
NCI-H522 [2] = assay: In vitro growth inhibition against non-small-cell lung cancer […] cell line was reported.; settings: Homo sapiens
SN12C [3] = assay: In vitro total growth inhibition against renal cancer SN12C cell lines was reported.; settings: Homo sapiens, read-out: Log TGI (converted)
MOLT-4 = assay: Log of molar concentration leading to 50% cell death against leukemia MOLT-4 cell line was reported; settings: Homo sapiens, read-out: Log LC50 (the source's name) (converted)
RPMI-8226 = assay: In vitro growth inhibition against leukemia […] cell line was reported.; settings: Homo sapiens
UACC-62 = assay: Log of molar concentration leading to 50% cell death against melanoma UACC-62 cell line was reported; settings: Homo sapiens, read-out: Log LC50 (the source's name) (converted)
SK-MEL-2 = assay: Log of molar concentration leading to 50% cell death against melanoma SK-MEL-2 cell line was reported; settings: Homo sapiens, read-out: Log LC50 (the source's name) (converted)
A498 = assay: Log of molar concentration leading to 50% cell death against renal cancer A498 cell line was reported; settings: Homo sapiens, read-out: Log LC50 (the source's name) (converted)
TK-10 = assay: Log of molar concentration leading to 50% cell death against renal cancer TK-10 cell line was reported; settings: Homo sapiens, read-out: Log LC50 (the source's name) (converted)
T47D = assay: Log of molar concentration leading to 50% cell death against breast cancer […] cell line was reported; settings: Homo sapiens, read-out: Log LC50 (the source's name) (converted)
SK-MEL-28 = assay: In vitro total growth inhibition against melanoma SK-MEL-28 cell lines was reported.; settings: Homo sapiens, read-out: Log TGI (converted)
OVCAR-4 [4] = assay: In vitro total growth inhibition against ovarian cancer OVCAR-4 cell lines was reported.; settings: Homo sapiens, read-out: Log TGI (converted)
COLO 205 = assay: In vitro total growth inhibition against colon cancer COLO 205 cell lines was reported.; settings: Homo sapiens, read-out: Log TGI (converted)
CAKI-1 [5] = assay: Log of molar concentration leading to 50% cell death against renal cancer CAKI-1 cell line was reported; settings: Homo sapiens, read-out: Log LC50 (the source's name) (converted)
MDA-N = assay: Log of molar concentration leading to 50% cell death against breast cancer MDA-Ncell line was reported; settings: Homo sapiens, read-out: Log LC50 (the source's name) (converted)
NCI-H226 [6] = assay: Log of molar concentration leading to 50% cell death against non-small-cell lung cancer NCI-H226 cell line was reported; settings: Homo sapiens, read-out: Log LC50 (the source's name) (converted)
SF-268 [7] = assay: In vitro growth inhibition against CNS cancer SF-268 cell line was reported.; settings: Homo sapiens
K562 [8] = assay: In vitro growth inhibition against leukemia K-562 cell line was reported.; settings: Homo sapiens
HCT-15 = assay: Log of molar concentration leading to 50% cell death against colon cancer HCT-15 cell line was reported; settings: Homo sapiens, read-out: Log LC50 (the source's name) (converted)
SNB-19 = assay: Log of molar concentration leading to 50% cell death against CNS cancer SNB-19 cell line was reported; settings: Homo sapiens, read-out: Log LC50 (the source's name) (converted)
SN12C [9] = assay: Log of molar concentration leading to 50% cell death against renal cancer SN12C cell line was reported; settings: Homo sapiens, read-out: Log LC50 (the source's name) (converted)
KM12 = assay: In vitro growth inhibition against colon cancer KM12 cell line was reported.; settings: Homo sapiens
CAKI-1 [10] = assay: In vitro growth inhibition against renal cancer CAKI-1 cell line was reported.; settings: Homo sapiens
UO-31 [11] = assay: In vitro total growth inhibition against renal cancer UO-31 cell lines was reported.; settings: Homo sapiens, read-out: Log TGI (converted)
OVCAR-4 [12] = assay: Log of molar concentration leading to 50% cell death against ovarian cancer OVCAR-4 cell line was reported; settings: Homo sapiens, read-out: Log LC50 (the source's name) (converted)
BT-549 = assay: Log of molar concentration leading to 50% cell death against breast cancer BT 549 cell line was reported; settings: Homo sapiens, read-out: Log LC50 (the source's name) (converted)
NCI-H23 = assay: Log of molar concentration leading to 50% cell death against non-small-cell lung cancer NCI-H23 cell line was reported; settings: Homo sapiens, read-out: Log LC50 (the source's name) (converted)
A549 [13] = assay: In vitro growth inhibition against non-small-cell lung cancer A 549/ATCC cell line was reported.; settings: Homo sapiens
NCI-H522 [14] = assay: Log of molar concentration leading to 50% cell death against non-small-cell lung cancer NCI-522 cell line was reported; settings: Homo sapiens, read-out: Log LC50 (the source's name) (converted)
RXF 393 = assay: In vitro total growth inhibition against renal cancer RXF 393 cell lines was reported.; settings: Homo sapiens, read-out: Log TGI (converted)
SF-295 = assay: In vitro total growth inhibition against CNS cancer SF-295 cell lines was reported.; settings: Homo sapiens, read-out: Log TGI (converted)
HOP-92 = assay: Log of molar concentration leading to 50% cell death against non-small-cell lung cancer HOP-92 cell line was reported; settings: Homo sapiens, read-out: Log LC50 (the source's name) (converted)
SNB-75 = assay: In vitro growth inhibition against CNS cancer SNB-75 cell line was reported.; settings: Homo sapiens
786-0 = assay: Log of molar concentration leading to 50% cell death against renal cancer […] cell line was reported; settings: Homo sapiens, read-out: Log LC50 (the source's name) (converted)
SK-MEL-5 = assay: In vitro total growth inhibition against melanoma SK-MEL-5 cell lines was reported.; settings: Homo sapiens, read-out: Log TGI (converted)
HCT-116 = assay: In vitro growth inhibition against colon cancer HCT116 cell line was reported.; settings: Homo sapiens
DU-145 = assay: Log of molar concentration leading to 50% cell death against prostate cancer […] cell line was reported; settings: Homo sapiens, read-out: Log LC50 (the source's name) (converted)
SK-OV-3 [15] = assay: In vitro growth inhibition against ovarian cancer SK-OV-3 cell line was reported.; settings: Homo sapiens
UO-31 [16] = assay: Log of molar concentration leading to 50% cell death against renal cancer UO-31 cell line was reported; settings: Homo sapiens, read-out: Log LC50 (the source's name) (converted)
IGROV-1 = assay: In vitro growth inhibition against ovarian cancer IGROV1 cell line was reported.; settings: Homo sapiens
NCI-H226 [17] = assay: In vitro total growth inhibition against non-small-cell lung cancer NCI-H226 cell lines was reported.; settings: Homo sapiens, read-out: Log TGI (converted)
HT-29 = assay: Log of molar concentration leading to 50% cell death against colon cancer HT-29 cell line was reported; settings: Homo sapiens, read-out: Log LC50 (the source's name) (converted)
OVCAR-8 = assay: In vitro growth inhibition against ovarian cancer OVCAR-8 cell line was reported.; settings: Homo sapiens
K562 [18] = assay: In vitro total growth inhibition against leukemia K-562 cell lines was reported.; settings: Homo sapiens, read-out: Log TGI (converted)
SF-268 [19] = assay: In vitro total growth inhibition against CNS cancer SF-268 cell lines was reported.; settings: Homo sapiens, read-out: Log TGI (converted)
Malme-3M [20] = assay: Log of molar concentration leading to 50% cell death against melanoma MALME 3M cell line was reported; settings: Homo sapiens, read-out: Log LC50 (the source's name) (converted)
OVCAR-5 = assay: Log of molar concentration leading to 50% cell death against ovarian cancer […] cell line was reported; settings: Homo sapiens, read-out: Log LC50 (the source's name) (converted)
SR = assay: Log of molar concentration leading to 50% cell death against leukemia SR cell line was reported; settings: Homo sapiens, read-out: Log LC50 (the source's name) (converted)
SK-OV-3 [21] = assay: In vitro total growth inhibition against ovarian cancer SK-OV-3 cell lines was reported.; settings: Homo sapiens, read-out: Log TGI (converted)
A549 [22] = assay: Log of molar concentration leading to 50% cell death against non-small-cell lung cancer A 549/ATCC cell line was reported; settings: Homo sapiens, read-out: Log LC50 (the source's name) (converted)
SW-620 = assay: Log of molar concentration leading to 50% cell death against colon cancer SW620 cell line was reported; settings: Homo sapiens, read-out: Log LC50 (the source's name) (converted)
Malme-3M [23] = assay: In vitro total growth inhibition against melanoma MALME 3M cell lines was reported.; settings: Homo sapiens, read-out: Log TGI (converted)
LOX IMVI = assay: Log of molar concentration leading to 50% cell death against melanoma LOX IMVI cell line was reported; settings: Homo sapiens, read-out: Log LC50 (the source's name) (converted)

O=C(Nc1cccc2nsnc12)c1cc2c(cc1Cl)Sc1nccn1S2(=O)=O
GI50 (Malme-3M [1]): 66.1 µM
GI50 (NCI-H522 [2]): 5.37 µM
TGI (SN12C [3]): 28.8 µM
CC50 (MOLT-4): 83.2 µM
GI50 (RPMI-8226): 2.09 µM
CC50 (UACC-62): 41.7 µM
CC50 (SK-MEL-2): 64.6 µM
CC50 (A498): 63.1 µM
CC50 (TK-10): 50.1 µM
CC50 (T47D): 7.76 µM
TGI (SK-MEL-28): 6.76 µM
TGI (OVCAR-4 [4]): 10.2 µM
TGI (COLO 205): 30.9 µM
CC50 (CAKI-1 [5]): 51.3 µM
CC50 (MDA-N): 56.2 µM
CC50 (NCI-H226 [6]): 58.9 µM
GI50 (SF-268 [7]): 3.39 µM
GI50 (K562 [8]): 4.07 µM
CC50 (HCT-15): 72.4 µM
CC50 (SNB-19): 50.1 µM
CC50 (SN12C [9]): 56.2 µM
GI50 (KM12): 2.04 µM
GI50 (CAKI-1 [10]): 4.79 µM
TGI (UO-31 [11]): 4.37 µM
CC50 (OVCAR-4 [12]): 87.1 µM
CC50 (BT-549): 85.1 µM
CC50 (NCI-H23): 55 µM
GI50 (A549 [13]): 12.6 µM
CC50 (NCI-H522 [14]): 89.1 µM
TGI (RXF 393): 28.8 µM
TGI (SF-295): 25.1 µM
CC50 (HOP-92): 95.5 µM
GI50 (SNB-75): 3.89 µM
CC50 (786-0): 55 µM
TGI (SK-MEL-5): 33.9 µM
GI50 (HCT-116): 2.57 µM
CC50 (DU-145): 6.03 µM
GI50 (SK-OV-3 [15]): 45.7 µM
CC50 (UO-31 [16]): 50.1 µM
GI50 (IGROV-1): 5.5 µM
TGI (NCI-H226 [17]): 33.1 µM
CC50 (HT-29): 28.8 µM
GI50 (OVCAR-8): 2.34 µM
TGI (K562 [18]): 20 µM
TGI (SF-268 [19]): 16.2 µM

Cc1ccc2cccc(NC(=O)c3cc4c(cc3Cl)Sc3nccn3S4(=O)=O)c2n1
GI50 (Malme-3M [1]): 17 µM
GI50 (NCI-H522 [2]): 10.5 µM
CC50 (Malme-3M [20]): 64.6 µM
GI50 (RPMI-8226): 1.7 µM
CC50 (UACC-62): 67.6 µM
CC50 (SK-MEL-2): 77.6 µM
CC50 (OVCAR-5): 91.2 µM
CC50 (TK-10): 45.7 µM
CC50 (T47D): 38 µM
TGI (SK-MEL-28): 26.9 µM
TGI (OVCAR-4 [4]): 24.5 µM
TGI (COLO 205): 30.9 µM
CC50 (SR): 27.5 µM
TGI (SK-OV-3 [21]): 97.7 µM
GI50 (SF-268 [7]): 9.55 µM
GI50 (K562 [8]): 4.07 µM
CC50 (A549 [22]): 63.1 µM
GI50 (KM12): 6.61 µM
GI50 (CAKI-1 [10]): 23.4 µM
TGI (UO-31 [11]): 42.7 µM
CC50 (OVCAR-4 [12]): 61.7 µM
GI50 (A549 [13]): 12.3 µM
CC50 (NCI-H522 [14]): 66.1 µM
CC50 (SW-620): 58.9 µM
TGI (RXF 393): 25.1 µM
TGI (SF-295): 24.5 µM
GI50 (SNB-75): 6.92 µM
CC50 (786-0): 91.2 µM
TGI (SK-MEL-5): 23.4 µM
GI50 (HCT-116): 4.57 µM
TGI (Malme-3M [23]): 33.1 µM
CC50 (DU-145): 42.7 µM
GI50 (SK-OV-3 [15]): 26.9 µM
GI50 (IGROV-1): 3.24 µM
TGI (NCI-H226 [17]): 57.5 µM
GI50 (OVCAR-8): 3.8 µM
TGI (K562 [18]): 38 µM
CC50 (LOX IMVI): 45.7 µM
